Data as given in patent US20130144250A1, “IMPLANTABLE DRUG DELIVERY COMPOSITIONS AND METHODS OF TREATMENT THEREOF” (Endo Pharmaceuticals Solutions Inc., priority 2011, published 2013).
In brackets after ≈: the same amount, converted by molar mass. Counter-ions that a name gives are not always drawn. Like-named read-outs stand apart in the source and are kept apart here.

Tests used:
[1] = In vitro elution of the API from implants in an elution bath of 0.9% saline at 37° C., exchanges analyzed by HPLC; assay type: physicochemical
Description: The testing method set forth in the examples to determine the elution rates for the respective actives included placing the implants in an elution bath consisting of 50 mL 0.9% saline at 37° C. Weekly exchanges of the elution media were analyzed by HPLC for the durations given.
A drug implant was manufactured as described in Example 1 using an aliphatic, polyether-based polyurethane (TECOFLEX® EG-93A polyurethane) as the tubing material. […] Nine pellets of the anastrozole blend were then placed inside the tubing. A total of about 370 mg anastrozole per implant was used. The implants were sterilized by gamma irradiation and placed in an elution bath of 0.9% saline (50 mL) at 37° C. Regular exchanges of the elution media were analyzed by HPLC for over 400 days.
Implants D and E were then tested for in vitro elution, as described in Example 2.
The implants were sterilized by gamma irradiation and placed in an elution bath of 0.9% saline (200 mL) at 37° C.
Drug containing pellets were manufactured as described in Example 1, and the polymeric sorption enhancer croscarmellose sodium was added to the drug blend. Nine pellets of a drug blend with various concentrations of anastrozole and croscarmellose, with the remainder being 2% stearic acid as lubricant, were placed into a polyurethane tubing (TECOFLEX® EG-93A). The implants were sterilized by gamma irradiation and placed in an elution batch consisting of 50 mL saline at 37° C. Weekly exchanges of the elution media were analyzed by HPLC for 13 weeks.
Drug containing pellets were manufactured as described in Example 1, and the polymeric sorption enhancer croscarmellose sodium was added to the drug blend. […] The implants were sterilized by gamma irradiation and placed in an elution batch consisting of 500 mL saline at 37° C. Weekly exchanges of the elution media were analyzed by HPLC for 11 weeks.
A total of about 250 mg fingolimod were loaded into the implants with 10% croscarmellose and 2% stearic acid. The implants were sterilized by gamma irradiation and placed in an elution batch consisting of 800 mL 0.9% saline at 37° C. Weekly exchanges of the elution media were analyzed by HPLC for up to 30 weeks.
The drug implants were manufactured as described in Example 26 using TECOFLEX® EG-80A, TECOFLEX® EG-85A, TECOFLEX® EG-93A, TECOFLEX® EG-100A, TECOFLEX® EG-65D, or TECOFLEX® EG-68D polyurethanes as the tubing materials and varenicline tartrate as the API. […] A total of about 350 mg varenicline tartrate were loaded into each implant with 10% croscarmellose and 2% stearic acid. The implants were sterilized by gamma irradiation and placed in an elution batch consisting of 200 mL 0.9% saline at 37° C. Weekly exchanges of the elution media were analyzed by HPLC for up to 11 weeks.
The drug implant was manufactured as described in Example 26 using TECOFLEX® EG-93A polyurethane as the tubing material and varenicline free base as the API. […] A total of about is 250 mg varenicline free base were loaded into the implant with 10% croscarmellose and 2% stearic acid. The implant was sterilized by gamma irradiation and placed in an elution batch consisting of 100 mL 0.9% saline at 37° C.

estrogen formation [2] = settings: indirect effect model with sigmoidal inhibitory drug effect
[3] = cited from earlier work
estrogen formation [4] = assay: animal or person; settings: Homo sapiens, read-out: EC50 (concentration achieving half-maximal response)
[5] = human, in vivo, po

In the case of CC(C)(C#N)c1cc(Cn2cncn2)cc(C(C)(C)C#N)c1 [Anastrozole, anastrozole], the “duration of pseudo-zero order elution rate” value ([1]; FIG. 4, aliphatic polyether-based urethane implant (Example 2)) is reported as “over 400 days”, the “duration of pseudo-zero order elution” value ([1]; FIG. 8, polyether-based polyurethane excipient) is reported as “over one year” and the “elution profile, 9 pellets versus 7 pellets” value ([1]; FIG. 10) is reported as “higher elution profile”. For the same compound, the “duration of pseudo-zero order elution rate” value ([1]; FIG. 13, 10% sorption enhancer (croscarmellose)) was “over 80 days”, the “duration of pseudo-zero order elution rate” value ([1]; FIG. 14, 10% sodium carboxymethyl starch) was “over 80 days” and the “duration of pseudo-zero order elution rate” value ([1]; FIG. 14, 10% sodium starch glycolate) was “over 80 days”. For the same compound, the “drug release rate on increasing sodium polyacrylate from 10% to 14% of the drug blend” value ([1]; TECOFLEX EG-93A) was “increased the drug release rate”, the elution rate ([1]; TECOFLEX EG-93A implant, 2% croscarmellose, 50 mL saline) was “about 250 μg/day” and the elution rate ([1]; TECOFLEX EG-93A implant, 10% croscarmellose, 50 mL saline) was “about 850 μg/day”. The “release with increased load into the implant” value ([1]; TECOFLEX EG-93A, about 125 mg to about 540 mg per implant, over 70 days) was “linear release”, the “drug release compared to no added sorption enhancer” value ([1]; TECOFLEX EG-93A, even the smallest percentage of croscarmellose sodium) was “increased the drug release” and the “drug release compared to no added sorption enhancer” value ([1]; TECOFLEX EG-93A, sodium polyacrylate) was “increased the drug release”. For the same compound, the “Hill coefficient of the concentration response curve on estrogen” value (estrogen formation [2]) was 0.455, the Bioavailability ([3]; oral dosage) was 80-85% and the EC50 (estrogen formation [4]) was 0.000565 ng/mL (≈ 0.00193 nM).

In the case of O=C1CCc2ccc(OCCCCN3CCN(c4cccc(Cl)c4Cl)CC3)cc2N1 [Aripiprazole, aripiprazole], the Bioavailability ([3]; oral dosage) is given as 85%.

For C[C@]12C=CC(=O)N[C@@H]1CC[C@@H]1[C@@H]2CC[C@]2(C)[C@@H](C(=O)Nc3cc(C(F)(F)F)ccc3C(F)(F)F)CC[C@@H]12 [Dutasteride, dutasteride], the Bioavailability ([3]; oral dosage) is listed as roughly 60%.

For Nc1nc2ncc(CNc3ccc(C(=O)N[C@@H](CCC(=O)O)C(=O)O)cc3)nc2c(=O)[nH]1 [Folic acid, folic acid], the Bioavailability ([3]; oral dosage) is given as 60%.

In the case of N#Cc1ccc(C(c2ccc(C#N)cc2)n2cncn2)cc1 [Letrozole, letrozole], the Bioavailability ([3]; oral dosage) is given as 99%.

For CCN(CC)CC#CCOC(=O)C(O)(c1ccccc1)C1CCCCC1 (stereo not drawn) [Oxybutynin HCl, oxybutynin hydrochloride], the “release rates from implants” value ([1]; TECOFLEX EG-80A and EG-85A implants, oxybutynin HCl) was “suitable release rates” and the elution from implants ([1]; TECOFLEX EG-93A, TECOPHILIC HP-60D-05 and HP-60D-10 implants, oxybutynin HCl) was “failed to elute”.

In the case of Cc1nc2n(c(=O)c1CCN1CCC(c3noc4cc(F)ccc34)CC1)CCCC2O (stereo not drawn) [Paliperidone, paliperidone], the Bioavailability ([3]; oral dosage) is listed as 28%.

In the case of Cc1nc2n(c(=O)c1CCN1CCC(c3noc4cc(F)ccc34)CC1)CCCC2 [Risperidone, 4-[2-[4-(6-fluorobenzo[d]isoxazol-3-yl)-1-piperidyl]ethyl]-3-methyl-2,6-diazabicyclo[4.4.0]deca-1,3-dien-5-one], the elution rate ([1]; TECOFLEX EG-80A implant, 2% croscarmellose, 500 mL saline, week 2) is reported as “about 1,450 μg/day”, the elution rate ([1]; TECOFLEX EG-80A implant, 2% croscarmellose, 500 mL saline, week 11) is reported as “about 850 μg/day” and the elution rate ([1]; TECOFLEX EG-80A implant, 12% croscarmellose, 500 mL saline, week 2) is reported as “about 1,800 μg/day”. For the same compound, the elution rate ([1]; TECOFLEX EG-80A implant, 12% croscarmellose, 500 mL saline, week 11) was “about 1,400 μg/day”, the “daily elution rates with a sorption enhancer in comparison to an implant without” value ([1]; TECOFLEX EG-80A, 10% croscarmellose vs none, 200 mL saline) was “significantly higher” and the “drug release compared to no added sorption enhancer” value ([1]; TECOFLEX EG-80A, 10% polyethylene oxide, sodium polyacrylate or chondroitin sulfate) was “increased the drug release”. For the same compound, the “drug release compared to no added sorption enhancer” value ([1]; TECOFLEX EG-80A, 10% sodium carboxymethyl cellulose) was “increased the drug release”, the “drug release compared to no added sorption enhancer” value ([1]; TECOFLEX EG-80A, even the smallest percentage of croscarmellose sodium) was “increased the drug release” and the “time of peak active moiety plasma concentration following administration” value [5] was no more than 3 h.

For CCN(C)C(=O)Oc1cccc([C@H](C)N(C)C)c1 [Rivastigmine Tartrate, rivastigmine tartrate], the Bioavailability ([3]; oral dosage) is listed as 35%.

In the case of CCCN(CCc1cccs1)[C@H]1CCc2c(O)cccc2C1 [Rotigotine, rotigotine], the Bioavailability ([3]; transdermal) is listed as 35%.

In the case of C#CCN(C)[C@H](C)Cc1ccccc1 [Selegiline HCl, selegiline HCl], the Bioavailability ([3]; buccal 1.25 mg/day) is listed as 90%.

In the case of Cc1ccc(O)c([C@H](CCN(C(C)C)C(C)C)c2ccccc2)c1 [Tolterodine Tartrate, tolterodine tartrate], the Bioavailability ([3]; oral dosage) is given as roughly 75%.

For CCN(CC)CC#CCOC(=O)C(O)(c1ccccc1)C1CCCCC1 (stereo not drawn) [oxybutynin free base, oxybutynin], the elution from implants ([1]; TECOFLEX EG-80A and EG-85A implants, oxybutynin free base) is given as “essentially streamed out”, the “release rates from implants” value ([1]; TECOFLEX EG-93A, TECOPHILIC HP-60D-05 and HP-60D-10 implants, oxybutynin free base) is given as “suitable and controllable release rates” and the Bioavailability ([3]; oral dosage) is given as roughly 6%.

In the case of c1cnc2cc3c(cc2n1)[C@@H]1CNC[C@H]3C1 [varenicline free base, varenicline], the release rate ([1]; TECOFLEX EG-93A implant, 100 mL saline) is reported as “about 1,750 μg/day” and the “elution rates in vitro in comparison to the salt form” value ([1]; free base vs HCl or tartrate salt) is reported as “higher and more stable”.

For varenicline tartrate, the “drug release from implants” value ([1]; TECOFLEX EG-80A and EG-85A implants, after a long incubation phase) was “released but without any control over the release” and the “drug release from implants” value ([1]; TECOFLEX EG-93A, EG-100A, EG-65D and EG-68D implants, 200 mL saline) was “no drug was released”.
